Test results taken from PMC7531004, “Discovery of gramicidin A analogues with altered activities by multidimensional screening of a one-bead-one-compound library” (Nature Communications, 2020).
Where a SMILES comes first, the peptide text is derived from it. [ ]: non-standard residue; d: D form. The star is where a group is joined. NHCH2CH2OH = OCCN*; For = O=C*

Key:
[1] = system: Streptococcus pyogenes SSI-9; assay: Antibacterial activity assay of bead-derived peptides (three concentrations); format: cell-based; design: key: +++: inhibition by the 640-fold diluted peptide solution; ++: inhibition by the 160-fold diluted solution; +: inhibition by the 40-fold diluted solution; -: no inhibition; details: S. pyogenes, bead-derived peptide solution, three concentrations
Method in brief: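 Library peptide stock applied undiluted, 4-fold and 16-fold diluted in DMSO to S. pyogenes SSI-9 (2 × 10^5 CFU) in cation-adjusted Mueller Hinton broth with 5% laked horse blood. After 18 h at 37 °C, growth judged by visible cell precipitation.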

[2] = H+/Na+ transport assay of bead-derived peptides (one-point); format: biochemical; design: key: relative activity; mean of two control wells = 1.00; details: bead-derived peptide solution, EYPC/EYPG LUVs;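 note: relative to parent gramicidin A activity set to 1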
Method in brief: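 Miniaturized 96-well format. LUVs with entrapped pyranine (1.0 mM) were exposed to peptide for 30 min at RT. Intensities were expressed relative to full lysis by Triton X-100 and no treatment, with control-well mean = 1.00.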

[3] = system: P388 mouse leukemia cells; details: 92 h
Method in brief: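 P388 cells at 1 × 10^4 cells/mL (final) were exposed to library peptides (stocks diluted 250-fold in RPMI1640/10% FBS) for 92 h at 37 °C, 5% CO2. Viable cells were counted by WST-1/1-methoxy PMS (4 h), absorbance 415 nm, and expressed as cell viability (%).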

Row | Compound | antibacterial activity [1] | H+/Na+ transport activity normalized against the value of 1 (1.00) [2] | cell viability/% [3] [%]
1 | CC(C)C[C@@H](NC(=O)[C@H](C)NC(=O)[C@H](NC(=O)[C@H](C)NC(=O)CNC(=O)[C@@H](NC=O)C(C)C)[C@H](C)O)C(=O)N[C@H](C(=O)N[C@H](CC(C)C)C(=O)N[C@@H](Cc1c[nH]c2ccccc12)C(=O)N[C@H](CC(C)C)C(=O)N[C@@H](Cc1c[nH]c2ccccc12)C(=O)N[C@H](CC(C)C)C(=O)N[C@@H](Cc1c[nH]c2ccccc12)C(=O)N[C@H](CC(C)C)C(=O)N[C@@H](Cc1c[nH]c2ccccc12)C(=O)NCCO)C(C)C [compound 10497] (For-VGA[dT]A[dL]V[dL]W[dL]W[dL]W[dL]W-NHCH2CH2OH) | - | 1.24 | 100.0
2 | CC(C)C[C@@H](NC(=O)[C@H](C)NC(=O)CNC(=O)[C@@H](NC=O)C(C)C)C(=O)N[C@@H](C)C(=O)N[C@H](CC(C)C)C(=O)N[C@H](C(=O)N[C@H](CC(C)C)C(=O)N[C@@H](Cc1c[nH]c2ccccc12)C(=O)N[C@@H](C(=O)N[C@@H](Cc1c[nH]c2ccccc12)C(=O)N[C@H](CC(C)C)C(=O)N[C@@H](Cc1c[nH]c2ccccc12)C(=O)N[C@@H](C(=O)N[C@@H](Cc1c[nH]c2ccccc12)C(=O)NCCO)C(C)C)[C@H](C)O)C(C)C [compound 10499] (For-VGA[dL]A[dL]V[dL]W[dT]W[dL]W[dV]W-NHCH2CH2OH) | - | 1.14 | 100.0
3 | CC(C)C[C@@H](NC(=O)[C@H](Cc1c[nH]c2ccccc12)NC(=O)[C@H](NC(=O)[C@H](Cc1c[nH]c2ccccc12)NC(=O)[C@H](NC(=O)[C@H](Cc1c[nH]c2ccccc12)NC(=O)[C@@H](CC(C)C)NC(=O)[C@@H](NC(=O)[C@H](NC(=O)[C@H](C)NC(=O)[C@H](NC(=O)[C@H](C)NC(=O)CNC(=O)[C@@H](NC=O)C(C)C)[C@H](C)O)C(C)C)C(C)C)C(C)C)C(C)C)C(=O)N[C@@H](Cc1c[nH]c2ccccc12)C(=O)NCCO [compound 10500] (For-VGA[dT]A[dV]V[dL]W[dV]W[dV]W[dL]W-NHCH2CH2OH) | - | 1.14 | 100.0
4 | CC(C)C[C@@H](NC(=O)[C@H](Cc1c[nH]c2ccccc12)NC(=O)[C@H](NC(=O)[C@H](Cc1c[nH]c2ccccc12)NC(=O)[C@@H](CC(C)C)NC(=O)[C@H](Cc1c[nH]c2ccccc12)NC(=O)[C@@H](CC(C)C)NC(=O)[C@@H](NC(=O)[C@H](NC(=O)[C@H](C)NC(=O)[C@H](NC(=O)[C@H](C)NC(=O)CNC(=O)[C@@H](NC=O)C(C)C)C(C)C)C(C)C)C(C)C)[C@H](C)O)C(=O)N[C@@H](Cc1c[nH]c2ccccc12)C(=O)NCCO [compound 10516] (For-VGA[dV]A[dV]V[dL]W[dL]W[dT]W[dL]W-NHCH2CH2OH) | - | 1.10 | 100.0
5 | CC(C)C[C@@H](NC(=O)[C@H](C)NC(=O)[C@H](NC(=O)[C@H](C)NC(=O)CNC(=O)[C@@H](NC=O)C(C)C)C(C)C)C(=O)N[C@H](C(=O)N[C@@H](C(=O)N[C@@H](Cc1c[nH]c2ccccc12)C(=O)N[C@@H](C(=O)N[C@@H](Cc1c[nH]c2ccccc12)C(=O)N[C@H](CC(C)C)C(=O)N[C@@H](Cc1c[nH]c2ccccc12)C(=O)N[C@H](CC(C)C)C(=O)N[C@@H](Cc1c[nH]c2ccccc12)C(=O)NCCO)[C@H](C)O)[C@H](C)O)C(C)C [compound 10517] (For-VGA[dV]A[dL]V[dT]W[dT]W[dL]W[dL]W-NHCH2CH2OH) | - | 1.05 | 100.0
6 | CC(C)C[C@@H](NC(=O)[C@H](C)NC(=O)CNC(=O)[C@@H](NC=O)C(C)C)C(=O)N[C@@H](C)C(=O)N[C@H](CC(C)C)C(=O)N[C@H](C(=O)N[C@@H](C(=O)N[C@@H](Cc1c[nH]c2ccccc12)C(=O)N[C@@H](C(=O)N[C@@H](Cc1c[nH]c2ccccc12)C(=O)N[C@@H](C(=O)N[C@@H](Cc1c[nH]c2ccccc12)C(=O)N[C@@H](C(=O)N[C@@H](Cc1c[nH]c2ccccc12)C(=O)NCCO)C(C)C)C(C)C)C(C)C)C(C)C)C(C)C [compound 10536] (For-VGA[dL]A[dL]V[dV]W[dV]W[dV]W[dV]W-NHCH2CH2OH) | + | 1.21 | 100.0
7 | CC(C)C[C@@H](NC(=O)[C@H](C)NC(=O)CNC(=O)[C@@H](NC=O)C(C)C)C(=O)N[C@@H](C)C(=O)N[C@H](CC(C)C)C(=O)N[C@H](C(=O)N[C@@H](C(=O)N[C@@H](Cc1c[nH]c2ccccc12)C(=O)N[C@@H](C(=O)N[C@@H](Cc1c[nH]c2ccccc12)C(=O)N[C@@H](C(=O)N[C@@H](Cc1c[nH]c2ccccc12)C(=O)N[C@H](CC(C)C)C(=O)N[C@@H](Cc1c[nH]c2ccccc12)C(=O)NCCO)C(C)C)[C@H](C)O)C(C)C)C(C)C [compound 10542] (For-VGA[dL]A[dL]V[dV]W[dT]W[dV]W[dL]W-NHCH2CH2OH) | - | 1.02 | 100.0
8 | CC(C)C[C@@H](NC(=O)[C@H](C)NC(=O)[C@H](NC(=O)[C@H](C)NC(=O)CNC(=O)[C@@H](NC=O)C(C)C)C(C)C)C(=O)N[C@H](C(=O)N[C@@H](C(=O)N[C@@H](Cc1c[nH]c2ccccc12)C(=O)N[C@H](CC(C)C)C(=O)N[C@@H](Cc1c[nH]c2ccccc12)C(=O)N[C@H](CC(C)C)C(=O)N[C@@H](Cc1c[nH]c2ccccc12)C(=O)N[C@H](CC(C)C)C(=O)N[C@@H](Cc1c[nH]c2ccccc12)C(=O)NCCO)C(C)C)C(C)C [compound 10593] (For-VGA[dV]A[dL]V[dV]W[dL]W[dL]W[dL]W-NHCH2CH2OH) | + | 1.10 | 38.5
9 | CC(C)C[C@@H](NC(=O)[C@H](Cc1c[nH]c2ccccc12)NC(=O)[C@@H](CC(C)C)NC(=O)[C@H](Cc1c[nH]c2ccccc12)NC(=O)[C@H](NC(=O)[C@H](Cc1c[nH]c2ccccc12)NC(=O)[C@H](NC(=O)[C@@H](NC(=O)[C@H](NC(=O)[C@H](C)NC(=O)[C@H](NC(=O)[C@H](C)NC(=O)CNC(=O)[C@@H](NC=O)C(C)C)C(C)C)C(C)C)C(C)C)C(C)C)C(C)C)C(=O)N[C@@H](Cc1c[nH]c2ccccc12)C(=O)NCCO [compound 10649] (For-VGA[dV]A[dV]V[dV]W[dV]W[dL]W[dL]W-NHCH2CH2OH) | ++ | 1.19 | 100.0
10 | CC(C)C[C@@H](NC(=O)[C@H](Cc1c[nH]c2ccccc12)NC(=O)[C@H](NC(=O)[C@H](Cc1c[nH]c2ccccc12)NC(=O)[C@H](NC(=O)[C@@H](NC(=O)[C@H](NC(=O)[C@H](C)NC(=O)[C@H](NC(=O)[C@H](C)NC(=O)CNC(=O)[C@@H](NC=O)C(C)C)[C@H](C)O)C(C)C)C(C)C)C(C)C)C(C)C)C(=O)N[C@@H](Cc1c[nH]c2ccccc12)C(=O)N[C@@H](C(=O)N[C@@H](Cc1c[nH]c2ccccc12)C(=O)NCCO)C(C)C [compound 10653] (For-VGA[dT]A[dV]V[dV]W[dV]W[dL]W[dV]W-NHCH2CH2OH) | - | 1.04 | 44.1
11 | CC(C)C[C@@H](NC(=O)[C@H](Cc1c[nH]c2ccccc12)NC(=O)[C@@H](CC(C)C)NC(=O)[C@H](Cc1c[nH]c2ccccc12)NC(=O)[C@H](NC(=O)[C@H](Cc1c[nH]c2ccccc12)NC(=O)[C@@H](CC(C)C)NC(=O)[C@@H](NC(=O)[C@H](NC(=O)[C@H](C)NC(=O)[C@H](NC(=O)[C@H](C)NC(=O)CNC(=O)[C@@H](NC=O)C(C)C)C(C)C)C(C)C)C(C)C)C(C)C)C(=O)N[C@@H](Cc1c[nH]c2ccccc12)C(=O)NCCO [compound 10661] (For-VGA[dV]A[dV]V[dL]W[dV]W[dL]W[dL]W-NHCH2CH2OH) | + | 1.03 | 39.9
12 | CC(C)C[C@@H](NC(=O)[C@H](Cc1c[nH]c2ccccc12)NC(=O)[C@H](NC(=O)[C@H](Cc1c[nH]c2ccccc12)NC(=O)[C@H](NC(=O)[C@H](Cc1c[nH]c2ccccc12)NC(=O)[C@@H](CC(C)C)NC(=O)[C@@H](NC(=O)[C@H](NC(=O)[C@H](C)NC(=O)[C@H](NC(=O)[C@H](C)NC(=O)CNC(=O)[C@@H](NC=O)C(C)C)C(C)C)C(C)C)C(C)C)C(C)C)C(C)C)C(=O)N[C@@H](Cc1c[nH]c2ccccc12)C(=O)NCCO [compound 10668] (For-VGA[dV]A[dV]V[dL]W[dV]W[dV]W[dL]W-NHCH2CH2OH) | + | 1.09 | 57.1
13 | CNC(=O)C[C@@H](NC(=O)[C@@H](NC(=O)[C@H](NC(=O)[C@H](C)NC(=O)[C@@H](CC(C)C)NC(=O)[C@H](C)NC(=O)CNC(=O)[C@@H](NC=O)C(C)C)C(C)C)C(C)C)C(=O)N[C@@H](Cc1c[nH]c2ccccc12)C(=O)N[C@H](CC(C)C)C(=O)N[C@@H](Cc1c[nH]c2ccccc12)C(=O)N[C@@H](C(=O)N[C@@H](Cc1c[nH]c2ccccc12)C(=O)N[C@H](CC(C)C)C(=O)N[C@@H](Cc1c[nH]c2ccccc12)C(=O)NCCO)C(C)C [compound 10669] (For-VGA[dL]A[dV]V[dD](NHMe)W[dL]W[dV]W[dL]W-NHCH2CH2OH) | - | 1.11 | 55.2
